# pIC50: −log10 of the molar value. Calls of active or inactive are those of the source. The rule behind the calls is not given here.
# Assays:
# [1] = molecular target: Voltage-gated inwardly rectifying potassium channel KCNH2 (Homo sapiens, UniProt Q12809); assay: Inhibition of human ERG
# Escherichia coli [2] = assay: Antibacterial activity against duck Escherichia coli clinical isolates assessed as diameter of zone of inhibition at 80 ug/ml after 18 hrs by agar diffusion method; assay type: functional; details: for zone of inhibition at 80 µg/mL: read-out: DIZ
# [3] = Cytotoxicity against human HeLa cells assessed as growth inhibition at 20 uM by Celltiter-Glo luminescence assay; assay type: cell-based; details: read-out: GI
# Staphylococcus aureus [4] = assay: Antibacterial activity against Staphylococcus aureus ATCC 29213 assessed as diameter of zone of inhibition at 80 ug/ml after 18 hrs by agar diffusion method; assay type: functional; details: for zone of inhibition at 80 µg/mL: ATCC 29213, 18 h, read-out: DIZ
# Salmonella [5] = assay: Antibacterial activity against Salmonella S1.1152 assessed as diameter of zone of inhibition at 80 ug/ml after 18 hrs by agar diffusion method; assay type: functional; details: for zone of inhibition at 80 µg/mL: S1.1152, 18 h, read-out: DIZ
# Pseudomonas aeruginosa [6] = assay: Antibacterial activity against Pseudomonas aeruginosa PS1.0050 assessed as diameter of zone of inhibition at 80 ug/ml after 18 hrs by agar diffusion method; assay type: functional; details: for zone of inhibition at 80 µg/mL: PS1.0050, 18 h, read-out: DIZ
# [7] = system: Mycobacterium tuberculosis; assay: Antitubercular activity against Mycobacterium tuberculosis H37Rv assessed as growth inhibition at 20 uM after 6 days by […]; assay type: functional; details: 144 h, read-out: GI
# HeLa = assay: Cytotoxicity against human HeLa cells by Celltiter-Glo luminescence assay; assay type: cell-based
# [8] = system: Mycobacterium tuberculosis; assay: Antitubercular activity against Mycobacterium tuberculosis H37Rv after 6 days by […]; assay type: functional; details: 144 h
# Staphylococcus aureus [9] = assay: Antibacterial activity against Staphylococcus aureus ATCC 29213 measured after 120 days of sample dissolution by serial dilution method; assay type: functional
# Salmonella [10] = assay: Antibacterial activity against Salmonella S1.1152 measured after 120 days of sample dissolution by serial dilution method; assay type: functional
# Pseudomonas aeruginosa [11] = assay: Antibacterial activity against Pseudomonas aeruginosa PS1.0050 measured after 120 days of sample dissolution by serial dilution method; assay type: functional
# Escherichia coli [12] = assay: Antibacterial activity against duck Escherichia coli clinical isolates measured after 120 days of sample dissolution by serial dilution method; assay type: functional
# Sequence of Voltage-gated inwardly rectifying potassium channel KCNH2 (Q12809 whole entry, the tested form may be a part): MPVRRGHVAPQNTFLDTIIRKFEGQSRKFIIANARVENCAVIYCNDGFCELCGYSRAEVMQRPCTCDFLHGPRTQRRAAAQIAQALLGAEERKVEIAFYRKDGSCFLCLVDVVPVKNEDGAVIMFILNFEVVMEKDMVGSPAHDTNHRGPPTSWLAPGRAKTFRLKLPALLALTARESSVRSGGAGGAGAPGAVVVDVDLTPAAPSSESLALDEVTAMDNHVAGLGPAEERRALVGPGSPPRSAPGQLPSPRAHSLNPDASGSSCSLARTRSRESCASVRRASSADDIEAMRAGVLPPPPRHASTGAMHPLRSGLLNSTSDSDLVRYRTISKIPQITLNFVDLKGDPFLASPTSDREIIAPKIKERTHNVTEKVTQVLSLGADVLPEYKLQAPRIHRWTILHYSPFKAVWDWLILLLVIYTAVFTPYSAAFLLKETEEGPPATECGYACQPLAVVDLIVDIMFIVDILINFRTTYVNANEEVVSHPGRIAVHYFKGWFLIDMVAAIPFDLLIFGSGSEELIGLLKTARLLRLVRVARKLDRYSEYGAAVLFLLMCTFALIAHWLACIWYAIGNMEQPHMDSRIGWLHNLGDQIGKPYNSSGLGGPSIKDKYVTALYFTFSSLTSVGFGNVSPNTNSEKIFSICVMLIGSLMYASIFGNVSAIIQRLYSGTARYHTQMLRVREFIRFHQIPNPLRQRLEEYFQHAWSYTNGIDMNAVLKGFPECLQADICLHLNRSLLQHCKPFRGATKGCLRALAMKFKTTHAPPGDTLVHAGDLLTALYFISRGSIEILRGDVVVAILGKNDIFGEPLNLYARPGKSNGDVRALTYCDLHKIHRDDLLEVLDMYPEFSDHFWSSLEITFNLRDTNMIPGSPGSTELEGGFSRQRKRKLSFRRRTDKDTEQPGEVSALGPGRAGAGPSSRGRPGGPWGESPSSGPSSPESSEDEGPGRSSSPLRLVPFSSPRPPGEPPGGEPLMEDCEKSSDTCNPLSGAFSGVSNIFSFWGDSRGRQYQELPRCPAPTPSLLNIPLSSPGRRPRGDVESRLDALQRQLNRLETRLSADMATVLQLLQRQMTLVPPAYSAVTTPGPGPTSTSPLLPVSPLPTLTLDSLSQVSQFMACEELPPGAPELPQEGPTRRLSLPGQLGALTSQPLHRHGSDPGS
compound,measurement,setting,value
Cc1nnnn1CC(=O)NC1CCN(c2c(F)cc3c(=O)c(C(=O)O)cn(C4CC4)c3c2Cl)C1 (centres undefined),pIC50,[1],< 6.00
O=C(CCn1ccnc1)NC1CCN(c2c(F)cc3c(=O)c(C(=O)O)cn(C4CC4)c3c2Cl)C1 (centres undefined),pIC50,[1],< 6.00
Cc1nccn1CC(=O)NC1CCN(c2c(F)cc3c(=O)c(C(=O)O)cn(C4CC4)c3c2Cl)C1 (centres undefined),pIC50,[1],< 6.00
Cc1cn(CCC(=O)NC2CCN(c3c(F)cc4c(=O)c(C(=O)O)cn(C5CC5)c4c3Cl)C2)cn1 (centres undefined),pIC50,[1],< 6.00
Nc1nnc(SCCC(=O)NC2CCN(c3c(F)cc4c(=O)c(C(=O)O)cn(C5CC5)c4c3Cl)C2)s1 (centres undefined),diameter of the inhibition zone (DIZ),Escherichia coli [2],inactive
same,inhibition at 20 µM,[3],-21.2%
same,diameter of the inhibition zone (DIZ),Staphylococcus aureus [4],inactive
same,diameter of the inhibition zone (DIZ),Salmonella [5],inactive
same,diameter of the inhibition zone (DIZ),Pseudomonas aeruginosa [6],inactive
same,inhibition of growth at 20 µM,[7],95.8%
same,pIC50,[1],< 6.00
same,pIC50,HeLa,< 4.70
same,MIC,[8],3.9 µM
Cc1cc(C)n(CC(=O)NC2CCN(c3c(F)cc4c(=O)c(C(=O)O)cn(C5CC5)c4c3Cl)C2)n1 (centres undefined),pIC50,[1],< 6.00
COc1ccc2[nH]c(SCC(=O)NC3CCN(c4c(F)cc5c(=O)c(C(=O)O)cn(C6CC6)c5c4Cl)C3)nc2c1 (centres undefined),pIC50,[1],< 6.00
O=C(Cn1nnc2ccccc21)NC1CCN(c2c(F)cc3c(=O)c(C(=O)O)cn(C4CC4)c3c2Cl)C1 (centres undefined),pIC50,[1],< 6.00
O=C(Cn1nccn1)NC1CCN(c2c(F)cc3c(=O)c(C(=O)O)cn(C4CC4)c3c2Cl)C1 (centres undefined),pIC50,[1],< 6.00
O=C(Cn1cnnn1)NC1CCN(c2c(F)cc3c(=O)c(C(=O)O)cn(C4CC4)c3c2Cl)C1 (centres undefined),pIC50,[1],< 6.00
Cn1nnc(SCC(=O)NC2CCN(c3c(F)cc4c(=O)c(C(=O)O)cn(C5CC5)c4c3Cl)C2)n1 (centres undefined),pIC50,[1],< 6.00
Nc1nnn(CCC(=O)NC2CCN(c3c(F)cc4c(=O)c(C(=O)O)cn(C5CC5)c4c3Cl)C2)n1 (centres undefined),pIC50,[1],< 6.00
O=C(Cn1ccnc1)NC1CCN(c2c(F)cc3c(=O)c(C(=O)O)cn(C4CC4)c3c2Cl)C1 (centres undefined),pIC50,[1],< 6.00
Cc1nnnn1CCC(=O)NC1CCN(c2c(F)cc3c(=O)c(C(=O)O)cn(C4CC4)c3c2Cl)C1 (centres undefined),pIC50,[1],< 6.00
Cc1nnn(CCC(=O)NC2CCN(c3c(F)cc4c(=O)c(C(=O)O)cn(C5CC5)c4c3Cl)C2)n1 (centres undefined),pIC50,[1],< 6.00
O=C(Cn1cncn1)NC1CCN(c2c(F)cc3c(=O)c(C(=O)O)cn(C4CC4)c3c2Cl)C1 (centres undefined),pIC50,[1],< 6.00
Nc1nnn(CC(=O)NC2CCN(c3c(F)cc4c(=O)c(C(=O)O)cn(C5CC5)c4c3Cl)C2)n1 (centres undefined),pIC50,[1],< 6.00
Cc1nccn1CCC(=O)NC1CCN(c2c(F)cc3c(=O)c(C(=O)O)cn(C4CC4)c3c2Cl)C1 (centres undefined),pIC50,[1],< 6.00
Cc1cc(C)n(CCC(=O)NC2CCN(c3c(F)cc4c(=O)c(C(=O)O)cn(C5CC5)c4c3Cl)C2)n1 (centres undefined),pIC50,[1],< 6.00
O=C(Cn1ncnn1)NC1CCN(c2c(F)cc3c(=O)c(C(=O)O)cn(C4CC4)c3c2Cl)C1 (centres undefined),pIC50,[1],< 6.00
NC1CCN(c2c(F)cc3c(=O)c(C(=O)O)cn(C4CC4)c3c2Cl)C1 (centres undefined) [CLINAFLOXACIN],zone of inhibition at 80 µg/mL,Escherichia coli [2],7 to 17 mm
same,MIC,Staphylococcus aureus [9],1 µg/mL
same,zone of inhibition at 80 µg/mL,Staphylococcus aureus [4],22 mm
same,MIC,Salmonella [10],1 µg/mL
same,zone of inhibition at 80 µg/mL,Salmonella [5],13 to 21 mm
same,MIC,Pseudomonas aeruginosa [11],0.125 µg/mL
same,zone of inhibition at 80 µg/mL,Pseudomonas aeruginosa [6],22 to 23 mm
same,MIC,Escherichia coli [12],2 µg/mL
Cc1nnn(CC(=O)NC2CCN(c3c(F)cc4c(=O)c(C(=O)O)cn(C5CC5)c4c3Cl)C2)n1 (centres undefined),pIC50,[1],< 6.00
O=C(Cn1cccn1)NC1CCN(c2c(F)cc3c(=O)c(C(=O)O)cn(C4CC4)c3c2Cl)C1 (centres undefined),pIC50,[1],< 6.00
O=C(CCn1nccn1)NC1CCN(c2c(F)cc3c(=O)c(C(=O)O)cn(C4CC4)c3c2Cl)C1 (centres undefined),pIC50,[1],< 6.00
O=C(CSc1nc2ccccc2[nH]1)NC1CCN(c2c(F)cc3c(=O)c(C(=O)O)cn(C4CC4)c3c2Cl)C1 (centres undefined),pIC50,[1],< 6.00
O=C(Cn1ccnn1)NC1CCN(c2c(F)cc3c(=O)c(C(=O)O)cn(C4CC4)c3c2Cl)C1 (centres undefined),zone of inhibition at 80 µg/mL,Escherichia coli [2],16 mm
same,inhibition at 20 µM,[3],-10.1%
same,MIC,Staphylococcus aureus [9],4 µg/mL
same,zone of inhibition at 80 µg/mL,Staphylococcus aureus [4],17 mm
same,MIC,Salmonella [10],16 µg/mL
same,zone of inhibition at 80 µg/mL,Salmonella [5],19 mm
same,MIC,Pseudomonas aeruginosa [11],1 µg/mL
same,zone of inhibition at 80 µg/mL,Pseudomonas aeruginosa [6],19 mm
same,inhibition of growth at 20 µM,[7],98.5%
same,pIC50,[1],< 6.00
same,MIC,[8],2.28 µM
same,MIC,Escherichia coli [12],> 16 µg/mL
Cc1cn(CC(=O)NC2CCN(c3c(F)cc4c(=O)c(C(=O)O)cn(C5CC5)c4c3Cl)C2)cn1 (centres undefined),pIC50,[1],< 6.00
Nc1n[nH]c(SCC(=O)NC2CCN(c3c(F)cc4c(=O)c(C(=O)O)cn(C5CC5)c4c3Cl)C2)n1 (centres undefined),zone of inhibition at 80 µg/mL,Escherichia coli [2],14 mm
same,inhibition at 20 µM,[3],-7.2%
same,MIC,Staphylococcus aureus [9],16 µg/mL
same,zone of inhibition at 80 µg/mL,Staphylococcus aureus [4],16 mm
same,MIC,Salmonella [10],16 µg/mL
same,zone of inhibition at 80 µg/mL,Salmonella [5],16 mm
same,MIC,Pseudomonas aeruginosa [11],8 µg/mL
same,zone of inhibition at 80 µg/mL,Pseudomonas aeruginosa [6],16 mm
same,inhibition of growth at 20 µM,[7],98.2%
same,pIC50,[1],< 6.00
same,pIC50,HeLa,< 4.70
same,MIC,[8],0.72 µM
same,MIC,Escherichia coli [12],> 16 µg/mL
O=C(CCn1cncn1)NC1CCN(c2c(F)cc3c(=O)c(C(=O)O)cn(C4CC4)c3c2Cl)C1 (centres undefined),pIC50,[1],< 6.00
Nc1ccn(CC(=O)NC2CCN(c3c(F)cc4c(=O)c(C(=O)O)cn(C5CC5)c4c3Cl)C2)n1 (centres undefined),zone of inhibition at 80 µg/mL,Escherichia coli [2],23 mm
same,inhibition at 20 µM,[3],-17.1%
same,MIC,Staphylococcus aureus [9],16 µg/mL
same,zone of inhibition at 80 µg/mL,Staphylococcus aureus [4],23 mm
same,MIC,Salmonella [10],16 µg/mL
same,zone of inhibition at 80 µg/mL,Salmonella [5],23 mm
same,MIC,Pseudomonas aeruginosa [11],2 µg/mL
same,zone of inhibition at 80 µg/mL,Pseudomonas aeruginosa [6],25 mm
same,inhibition of growth at 20 µM,[7],98.5%
same,pIC50,[1],< 6.00
same,MIC,[8],1.69 µM
same,MIC,Escherichia coli [12],> 16 µg/mL
Nc1nnc(SCC(=O)NC2CCN(c3c(F)cc4c(=O)c(C(=O)O)cn(C5CC5)c4c3Cl)C2)s1 (centres undefined),zone of inhibition at 80 µg/mL,Escherichia coli [2],12 mm
same,inhibition at 20 µM,[3],-11.2%
same,MIC,Staphylococcus aureus [9],8 µg/mL
same,zone of inhibition at 80 µg/mL,Staphylococcus aureus [4],12 mm
same,MIC,Salmonella [10],16 µg/mL
same,zone of inhibition at 80 µg/mL,Salmonella [5],12 mm
same,MIC,Pseudomonas aeruginosa [11],4 µg/mL
same,zone of inhibition at 80 µg/mL,Pseudomonas aeruginosa [6],15 mm
same,inhibition of growth at 20 µM,[7],99%
same,pIC50,[1],< 6.00
same,pIC50,HeLa,< 4.70
same,MIC,[8],0.66 µM
same,MIC,Escherichia coli [12],> 16 µg/mL
O=C(CCn1cnc2ccccc21)NC1CCN(c2c(F)cc3c(=O)c(C(=O)O)cn(C4CC4)c3c2Cl)C1 (centres undefined),pIC50,[1],< 6.00
O=C(Cn1cnc2ccccc21)NC1CCN(c2c(F)cc3c(=O)c(C(=O)O)cn(C4CC4)c3c2Cl)C1 (centres undefined),pIC50,[1],< 6.00
O=C(CCn1ccnn1)NC1CCN(c2c(F)cc3c(=O)c(C(=O)O)cn(C4CC4)c3c2Cl)C1 (centres undefined),diameter of the inhibition zone (DIZ),Escherichia coli [2],inactive
same,inhibition at 20 µM,[3],-9.5%
same,zone of inhibition at 80 µg/mL,Staphylococcus aureus [4],7 mm
same,diameter of the inhibition zone (DIZ),Salmonella [5],inactive
same,zone of inhibition at 80 µg/mL,Pseudomonas aeruginosa [6],14 mm
same,inhibition of growth at 20 µM,[7],96.9%
same,pIC50,[1],< 6.00
same,pIC50,HeLa,< 4.70
same,MIC,[8],2.95 µM
O=C(CCn1cccn1)NC1CCN(c2c(F)cc3c(=O)c(C(=O)O)cn(C4CC4)c3c2Cl)C1 (centres undefined),pIC50,[1],< 6.00
